These results are taken from patent US20100210464A1, “HERBICIDAL COMPOSITION AND METHOD OF USE THEREOF” (SYNGENTA CROP PROTECTION, INC., priority 2007, published 2010).

What all share (format): in vivo
The subject of assay [1] is goosegrass (Eleusine indica). Briefly: Glasshouse trial, control of goosegrass, spray applied pre-emergence (Example 1). Particulars: for Actual weed control, Plus Mesotrione at 100 g ai/ha: X-77 0.1% v/v. The method, then: (§1) In the following tests, herbicides were applied at reduced field rates because herbicide effects are magnified in a glasshouse environment. The rates tested were selected to give between about 50 and 70% control with herbicides applied alone, so that any synergistic effect could be readily detected when testing mixtures. A glasshouse trial was carried out. Goosegrass seeds were sown into standard glasshouse potting mix (1:1 v/v Promix:Vero sand soil) contained in 10 cm square plastic pots. Treatments were replicated three times. Mesotrione (in the form Callisto® 480SE) was applied pre-emergence to goosegrass (Eleusine indica) at 100 g ai/ha with or without pendimethalin (in the form Prowl® H2O). When used, pendimethalin was applied at a rate of 140 g ai/ha or 280 g ai/ha. The adjuvant system was X-77 at 0.1% v/v in deionised water. 200 litres of herbicide/adjuvant system was used per hectare. General weed control was evaluated at 7 and 14 days after treatment (DAT). It is noted that all herbicides were applied at reduced field rates because herbicide effects are magnified in a glasshouse environment. Rates were chosen to give a 50 to 70% level of control with herbicides applied alone as this allows for detection of any synergistic effect when tank mixtures are used. The results were evaluated using the Colby formula. The expected result for (A+B) is (A+B)−(A×B/100) where A and B are the ‘observed’ results for A and B on their own.

The subject of assay [2] is goosegrass (Eleusine indica). Briefly: Glasshouse trial, control of goosegrass, granules applied pre-emergence (Example 2). The method, then: as §1, with “A” for “In the following tests, herbicides were applied at reduced field rates because herbicide effects are magnified in a glasshouse environment. The rates tested were selected to give between about 50 and 70% control with herbicides applied alone, so that any synergistic effect could be readily detected when testing mixtures. A”, “own. […] A glasshouse trial was carried out as described in Example 1, except that the herbicides were applied in the form of granules. Mesotrione granules were made by spraying a mesotrione millbase (28% SC formulation) onto a granular carrier, Agsorb LVM-GA 24/48. Pendimethalin granules were made by adding Prowl® 3.3EC (37.4%) and Agsorb LVM-GA 24/48 granules into a tumbler, followed by spraying with a binder, HiSil 233. For testing mixtures of mesotrione and pendimethalin, the appropriate number of granules for each herbicide were weighed and thoroughly mixed. […]” for “own.”

Assay [3] relates to white clover (Trifolium repens). Description: Glasshouse trial, control of white clover, granules applied post-emergence (Example 4). The note with it: pendimethalin granules 1120 g ai/ha + mesotrione granules 200 g ai/ha. The procedure:
200 litres of herbicide/adjuvant system was used per hectare. General weed control was evaluated at 7 and 14 days after treatment (DAT). It is noted that all herbicides were applied at reduced field rates because herbicide effects are magnified in a glasshouse environment. Rates were chosen to give a 50 to 70% level of control with herbicides applied alone as this allows for detection of any synergistic effect when tank mixtures are used. The results were evaluated using the Colby formula. The expected result for (A+B) is (A+B)−(A×B/100) where A and B are the ‘observed’ results for A and B on their own. […] A glasshouse trial was carried out as described in Example 1, except that the herbicides were applied in the form of granules. Mesotrione granules were made by spraying a mesotrione millbase (28% SC formulation) onto a granular carrier, Agsorb LVM-GA 24/48. Pendimethalin granules were made by adding Prowl® 3.3EC (37.4%) and Agsorb LVM-GA 24/48 granules into a tumbler, followed by spraying with a binder, HiSil 233. For testing mixtures of mesotrione and pendimethalin, the appropriate number of granules for each herbicide were weighed and thoroughly mixed. Granules were weighed for each individual pot using an amount equivalent to the rates listed in Table 2, and, based on a pot surface area of 10 cm^2, were carefully hand sprinkled on the emerged plants and pot surface. […]

Setting [4] is: pendimethalin granules 140 g ai/ha + mesotrione granules 100 g ai/ha.
Where [5] appears, read: pendimethalin granules 140 g ai/ha + mesotrione granules 200 g ai/ha.
The mark [6] stands for this setting: pendimethalin granules 280 g ai/ha + mesotrione granules 100 g ai/ha.
[7] abbreviates: pendimethalin granules 280 g ai/ha + mesotrione granules 200 g ai/ha.

Marks after values point to notes of the source that are not given here.

As to `CCC(CC)Nc1c([N+](=O)[O-])cc(C)c(C)c1[N+](=O)[O-]` [Pendimethalin, N-(1-ethylpropyl)-3,4-dimethyl-2,6-dinitrobenzenamine], the “Expected weed control (Colby formula), Plus Mesotrione at 100 g ai/ha” value in assay [1] (pendimethalin 140 g ai/ha + mesotrione 100 g ai/ha) amounted to 22%; in assay [1] (pendimethalin 280 g ai/ha + mesotrione 100 g ai/ha), 22%; in assay [2] (setting [4]), 48%; in assay [2] (setting [6]), 49%. Also, the “Actual weed control, Plus Mesotrione at 100 g ai/ha” value in assay [1] (pendimethalin (Prowl H2O) 140 g ai/ha + mesotrione (Callisto 480SE) 100 g ai/ha) is given as 35* %; in assay [1] (pendimethalin (Prowl H2O) 280 g ai/ha + mesotrione (Callisto 480SE) 100 g ai/ha) it was 37* %; in assay [2] (setting [4]) it was 67* %; in assay [2] (setting [6]), 87* %. The “Actual weed control, Plus Mesotrione at 200 g ai/ha” value is given as 95* % in assay [2] (setting [5]), 100* % in assay [2] (setting [7]) and 93* % in assay [3]. Also, the “Expected weed control (Colby formula), Plus Mesotrione at 200 g ai/ha” value in assay [2] (setting [5]) came to 80%; in assay [2] (setting [7]), 80%; in assay [3], 76%.
